The test system of assay [1] is transgenic HD mice of the N171-82Q strain. Kind of assay: Transgenic mouse model of Huntington's disease (rotarod, locomotion, survival). In kind it is in vivo. As to the method: Transgenic HD mice of the N171-82Q strain and non-transgenic littermates were treated with NAALADase inhibitor Compound B (30 mg/kg) or a vehicle from 10 weeks of age. The mice were placed on a rotating rod (“rotarod”). The length of time at which the mouse fell off the rotarod was recorded as a measure of motor coordination. […] The treatment with Compound B had no effect on the rotarod performance of normal non-HD mice.
The total distance traveled by the mice was also recorded as a measure of overall locomotion.
The effects of Compound B and vehicle on the survival of transgenic HD mice (N171-82Q) were evaluated. Thirteen mice (six male and seven female) were assigned to the Compound B treatment group, and fourteen mice (six male and eight female) were assigned to the vehicle treatment group. Treatment was continued until all the mice died.

Assay [2] deals with Brown Norway rats with unilateral optic nerve transection. Kind of assay: Optic nerve transection, optic nerve fiber counting. The assay is classed as in vivo, Rattus norvegicus. The conditions noted are these: for FIBER NUMBER ± SEM / PERCENT DIFFERENCE ± SEM in fiber number between transected and normal eye: 10 mg/kg i.p. daily. As to the method:
All experiments complied with the Association for Research in Vision and Ophthalmology Statement for the Use of Animals in Ophthalmic and Vision Research. 82 male Brown Norway rats (Rattus norvegicus), each weighing approximately 250 gm, were treated using procedures approved by the Animal Care Committee of the Johns Hopkins University School of Medicine. The rats were housed with a 12 hour light/12 hour dark cycle and fed ad libitum.
OPTIC NERVE TRANSECTION: The optic nerve was transected unilaterally in 26 rats under intraperitoneal pentobarbital anesthesia. The conjunctiva was opened with scissors and the optic nerve exposed by traction on extraocular muscles. The transection was performed with microscissors 5 mm posterior to the globe, with specific attention to avoidance of injury to major ocular blood vessels. Immediately after transection, the retina was examined ophthalmoscopically to assure that the retinal arterial blood supply was not disrupted. The conjunctiva was closed with absorbable suture and the eye dressed with antibiotic ointment. Beginning on the day of transection, the rats were treated daily with intraperitoneal injections of either a vehicle (9 rats with 50 mM HEPES-buffered saline) or a NAALADase inhibitor (8 rats with 10 mg/kg of Compound A and 9 rats with 10 mg/kg of Compound B). 5 saline treated rats, 3 Compound A treated rats and 4 Compound B treated rats were sacrificed at 2 weeks, and the remaining rats at 4 weeks, after transection.
OPTIC NERVE COUNTING: The rats were sacrificed by exsanguination under deep pentobarbital anesthesia. They were perfused through the heart with 2% paraformaldehyde/2% glutaraldehyde in 0.1 M phosphate buffer, pH 7.2, and the eyes with attached optic nerves were removed. A cross-section of the optic nerve from both experimental (glaucoma or transection) and control eyes was removed 1.5 mm posterior to the globe, 1 mm in thickness, and post-fixed in 2% osmium tetroxide in buffer. These were processed into epoxy resin, sectioned at 1 micron and stained with toluidine blue.
The area of the optic nerve cross-section was measured by outlining its outer border at 10× magnification on an image analysis system (Universal Imaging Corp., Westchester, Pa.) with Synsys digital camera and Metamorph software. Three area measurements were taken and the mean value was determined. To measure the density and fiber diameter distributions, images were captured with a 100× phase contrast objective from 10 different areas of each nerve. These were edited to eliminate non-neural objects and the size of each axon internal to the myelin sheath (its minimum diameter) and the density of axons/square mm were calculated for each image and nerve. The mean density was multiplied by total nerve area to yield fiber number for each nerve. The total fiber number in glaucoma or transection nerves was compared to the normal, fellow eye of each rat to yield a percent loss value. The number of axons counted among the 10 images was an approximately 20% sample of the 80–90,000 axons in normal rat nerves. The person measuring axon number was masked to the protocol conducted on the nerves.

Where [3] appears, read: 2 weeks survival after transection.
Where [4] appears, read: 4 weeks survival after transection.

For `O=C(O)CCC(CCCS)C(=O)O` (stereo not drawn) [Compound B, 2-(3-sulfanylpropyl)-pentanedioic acid], the “survival time versus vehicle treated counterparts” value in assay [1] (female transgenic HD mice (p-value=0.03)) was “significantly prolonged survival time”. The rotarod performance result in assay [1] (normal non-HD mice, 30 mg/kg) is recorded as “no effect”. The median survival time in assay [1] (transgenic HD mice (N171-82Q), both sexes, not significant versus vehicle (p=0.07)) was found to be 184 days. Also, the “rotarod performance (time on rotarod) versus vehicle” value in assay [1] (transgenic HD mice, 30 mg/kg from 10 weeks of age) is recorded as “stayed longer on the rotarod”. In assay [2] (2 weeks after transection), the “remaining axons relative to saline-treated rats” value is given as “twice”. Further, in assay [2] (setting [3]), the “FIBER NUMBER ± SEM” value is reported as 19,550 ± 5,091; the “PERCENT DIFFERENCE ± SEM in fiber number between transected and normal eye” value came to 75.3 ± 6.6%. In assay [2] (setting [4]), the “FIBER NUMBER ± SEM” value is reported as 5,162 ± 2,509; the “PERCENT DIFFERENCE ± SEM in fiber number between transected and normal eye” value is 93.4 ± 3.1%.
